# Measured values as given in US20120328569A1, “INHIBITORS OF HEPATITIS C VIRUS NS5B POLYMERASE” (priority 2010, published 2012).
# Test system: HCV genotype 1b replicon
# Experiment: HCV replicon assay, cell ELISA with antibody to replicon-encoded NS3/4A (genotype 1b replicon)
# Type: cell-based, hepatitis C virus
# Details: Hepatitis C virus, 96 h, read-out: Replicon 1b IC50 (nM), HCV genotype 1b replicon cells, 96 hours incubation, NS3/4A ELISA readout
# How it was run: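 Replicon-harbouring cells carrying neomycin phosphotransferase were incubated 96 h with a compound dilution series without G418. Replication was quantified indirectly by a cell ELISA detecting replicon-encoded NS3/4A. IC50 values were calculated relative to DMSO control with a four-parameter fit.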
row,SMILES,IC50 [nM]
1,CNC(=O)c1c(-c2ccc(F)cc2)oc2cc(N(C)S(C)(=O)=O)c(-c3cc(F)cc(-c4nc5cccc(C)c5o4)c3)cc12 [Example 167],10.4
2,CNC(=O)c1c(-c2ccc(F)cc2)oc2cc(N(C)S(C)(=O)=O)c(-c3ccc(F)c(-c4nc5ccccc5o4)c3)cc12 [Example 168],3.9
3,CNC(=O)c1c(-c2ccc(F)cc2)oc2cc(N(C)S(C)(=O)=O)c(-c3cc(-c4nc5ccccc5o4)ccc3F)cc12 [Example 169],6.4
4,CNC(=O)c1c(-c2ccc(F)cc2)oc2cc(N(C)S(C)(=O)=O)c(-c3cccc(-c4nc5cc(Cl)ccc5o4)c3)cc12 [Example 170],5.2
5,CNC(=O)c1c(-c2ccc(F)cc2)oc2cc(N(C)S(C)(=O)=O)c(-c3cccc(-c4nc5ccc(Cl)cc5o4)c3)cc12 [Example 171],6.8
6,CNC(=O)c1c(-c2ccc(F)cc2)oc2cc(N(C)S(C)(=O)=O)c(-c3cccc(-c4nc5cccc(Cl)c5o4)c3)cc12 [Example 172],27
7,CNC(=O)c1c(-c2ccc(F)cc2)oc2cc(N(C)S(C)(=O)=O)c(-c3cccc(-c4nc5c(C)cccc5o4)c3)cc12 [Example 173],5.6
8,CNC(=O)c1c(-c2ccc(F)cc2)oc2cc(N(C)S(C)(=O)=O)c(-c3cccc(-c4nc5ccc(C)cc5o4)c3)cc12 [Example 174],10.4
9,CNC(=O)c1c(-c2ccc(F)cc2)oc2cc(N(C)S(C)(=O)=O)c(-c3cccc(-c4nc5cccc(C)c5o4)c3)cc12 [Example 175],13.8
10,CNC(=O)c1c(-c2ccc(F)cc2)oc2cc(N(C)S(C)(=O)=O)c(-c3cc(OC)cc(-c4nc5ccccc5o4)c3)cc12 [Example 176],3.9
11,CNC(=O)c1c(-c2ccc(F)cc2)oc2cc(N(C)S(C)(=O)=O)c(-c3ccc(Cl)c(-c4nc5ccccc5o4)c3)cc12 [Example 177],7.4
12,CNC(=O)c1c(-c2ccc(F)cc2)oc2cc(N(C)S(C)(=O)=O)c(-c3cc(Cl)cc(-c4nc5ccccc5o4)c3)cc12 [Example 178],7
13,CNC(=O)c1c(-c2ccc(F)cc2)oc2cc(N(C)S(C)(=O)=O)c(-c3ccc(OC(F)(F)F)c(-c4nc5ccccc5o4)c3)cc12 [Example 179],7.2
14,CNC(=O)c1c(-c2ccc(F)cc2)oc2cc(N(C)S(C)(=O)=O)c(-c3cc(-c4nc5ccccc5o4)c(OC)cc3F)cc12 [Example 180],5
15,CNC(=O)c1c(-c2ccc(F)cc2)oc2cc(N(C)S(C)(=O)=O)c(-c3cc(F)c(OC)c(-c4nc5ccccc5o4)c3)cc12 [Example 181],5.7
16,CNC(=O)c1c(-c2ccc(F)cc2)oc2cc(N(C)S(C)(=O)=O)c(-c3cc(OC)c(OC)c(-c4nc5ccccc5o4)c3)cc12 [Example 182],2.3
17,CNC(=O)c1c(-c2ccc(F)cc2)oc2cc(N(C)S(C)(=O)=O)c(-c3ccc(OC)c(-c4nc5ccccc5o4)c3)cc12 [Example 183],1.5
18,CNC(=O)c1c(-c2ccc(F)cc2)oc2cc(N(C)S(C)(=O)=O)c(-c3ccc(OC)c(-c4nc5ccc(F)cc5o4)c3)cc12 [Example 185],2.2
19,CNC(=O)c1c(-c2ccc(F)cc2)oc2cc(N(C)S(C)(=O)=O)c(-c3ccc(OC)c(-c4nc5cccc(F)c5o4)c3)cc12 [Example 186],2
20,CNC(=O)c1c(-c2ccc(F)cc2)oc2cc(N(C)S(C)(=O)=O)c(-c3ccc(OC)c(-c4nc5cc(Cl)ccc5o4)c3)cc12 [Example 187],2.6

row,SMILES,IC50 [nM]
1,CNC(=O)c1c(-c2ccc(F)cc2)oc2cc(N(C)S(C)(=O)=O)c(-c3ccc(OC)c(-c4nc5ccc(Cl)cc5o4)c3)cc12 [Example 188],5.1
2,CNC(=O)c1c(-c2ccc(F)cc2)oc2cc(N(C)S(C)(=O)=O)c(-c3ccc(OC)c(-c4nc5cccc(Cl)c5o4)c3)cc12 [Example 189],1.9
3,CNC(=O)c1c(-c2ccc(F)cc2)oc2cc(N(C)S(C)(=O)=O)c(-c3ccc(OC)c(-c4nc5c(C)cccc5o4)c3)cc12 [Example 190],2.2
4,CNC(=O)c1c(-c2ccc(F)cc2)oc2cc(N(C)S(C)(=O)=O)c(-c3ccc(OC)c(-c4nc5ccc(C)cc5o4)c3)cc12 [Example 191],4.1
5,CNC(=O)c1c(-c2ccc(F)cc2)oc2cc(N(C)S(C)(=O)=O)c(-c3ccc(OC)c(-c4nc5cccc(C)c5o4)c3)cc12 [Example 192],1.9
6,CNC(=O)c1c(-c2ccc(F)cc2)oc2cc(N(C)S(C)(=O)=O)c(-c3ccc(OC(C)C)c(-c4nc5ccccc5o4)c3)cc12 [Example 193],11.6
7,CNC(=O)c1c(-c2ccc(F)cc2)oc2cc(N(C)S(C)(=O)=O)c(-c3cc(F)c(F)c(-c4nc5ccccc5o4)c3)cc12 [Example 194],4.2
8,CNC(=O)c1c(-c2ccc(F)cc2)oc2cc(N(C)S(C)(=O)=O)c(-c3cc(F)cc(-c4nc5ncccc5o4)c3)cc12 [Example 198],1.4
9,CNC(=O)c1c(-c2ccc(F)cc2)oc2cc(N(C)S(C)(=O)=O)c(-c3cc(F)cc(-c4nc5ncc(Cl)cc5o4)c3)cc12 [Example 199],2.9
10,CNC(=O)c1c(-c2ccc(F)cc2)oc2cc(N(C)S(C)(=O)=O)c(-c3ccc(F)c(-c4nc5ncccc5o4)c3)cc12 [Example 200],1.6
11,CNC(=O)c1c(-c2ccc(F)cc2)oc2cc(N(C)S(C)(=O)=O)c(-c3cccc(-c4nc5ncc(F)cc5o4)c3)cc12 [Example 201],1.7
12,CNC(=O)c1c(-c2ccc(F)cc2)oc2cc(N(C)S(C)(=O)=O)c(-c3cccc(-c4nc5ncc(Cl)cc5o4)c3)cc12 [Example 202],1
13,CNC(=O)c1c(-c2ccc(F)cc2)oc2cc(N(C)S(C)(=O)=O)c(-c3cc(Cl)cc(-c4nc5ncccc5o4)c3)cc12 [Example 203],2.4
14,CNC(=O)c1c(-c2ccc(F)cc2)oc2cc(N(C)S(C)(=O)=O)c(-c3cc(-c4nc5ncccc5o4)ccc3Cl)cc12 [Example 204],4.5
15,CNC(=O)c1c(-c2ccc(F)cc2)oc2cc(N(C)S(C)(=O)=O)c(-c3cccc(-c4nc5ncccc5o4)c3OC)cc12 [Example 205],11.9
16,CNC(=O)c1c(-c2ccc(F)cc2)oc2cc(N(C)S(C)(=O)=O)c(-c3ccc(OC(F)(F)F)c(-c4nc5ncccc5o4)c3)cc12 [Example 206],2.1
17,CNC(=O)c1c(-c2ccc(F)cc2)oc2cc(N(C)S(C)(=O)=O)c(-c3cc(-c4nc5ncccc5o4)c(OC)cc3F)cc12 [Example 207],2.4
18,CNC(=O)c1c(-c2ccc(F)cc2)oc2cc(N(C)S(C)(=O)=O)c(-c3ccc(C)c(-c4nc5ncccc5o4)c3)cc12 [Example 208],1.8
19,CNC(=O)c1c(-c2ccc(F)cc2)oc2cc(N(C)S(C)(=O)=O)c(-c3cc(C#N)cc(-c4nc5ncccc5o4)c3)cc12 [Example 209],5.5
20,CNC(=O)c1c(-c2ccc(F)cc2)oc2cc(N(C)S(C)(=O)=O)c(-c3cc(C)cc(-c4nc5ncccc5o4)c3)cc12 [Example 210],1.9

row,SMILES,IC50 [nM]
1,CNC(=O)c1c(-c2ccc(F)cc2)oc2cc(N(C)S(C)(=O)=O)c(-c3cccc(-c4nc5cnccc5o4)c3)cc12 [Example 211],3.3
2,CNC(=O)c1c(-c2ccc(F)cc2)oc2cc(N(C)S(C)(=O)=O)c(-c3cc(F)cc(-c4nc5cnccc5o4)c3)cc12 [Example 212],2.6
3,CNC(=O)c1c(-c2ccc(F)cc2)oc2cc(N(C)S(C)(=O)=O)c(-c3ccc(F)c(-c4nc5cnccc5o4)c3)cc12 [Example 213],2.5
4,CNC(=O)c1c(-c2ccc(F)cc2)oc2cc(N(C)S(C)(=O)=O)c(-c3cc(-c4nc5cnccc5o4)ccc3F)cc12 [Example 214],6.3
5,CNC(=O)c1c(-c2ccc(F)cc2)oc2cc(N(C)S(C)(=O)=O)c(-c3ccc(Cl)c(-c4nc5cnccc5o4)c3)cc12 [Example 215],2.1
6,CNC(=O)c1c(-c2ccc(F)cc2)oc2cc(N(C)S(C)(=O)=O)c(-c3cccc(-c4nc5ccncc5o4)c3)cc12 [Example 216],8.2
7,CNC(=O)c1c(-c2ccc(F)cc2)oc2cc(N(C)S(C)(=O)=O)c(-c3cccc(-c4nc5cccnc5o4)c3)cc12 [Example 217],2.1
8,CNC(=O)c1c(-c2ccc(F)cc2)oc2cc(N(C)S(C)(=O)=O)c(-c3cc(F)cc(-c4nc5cccnc5o4)c3)cc12 [Example 218],1.8
9,CNC(=O)c1c(-c2ccc(F)cc2)oc2cc(N(C)S(C)(=O)=O)c(-c3cc(F)cc(-c4nc5cc(Cl)cnc5o4)c3)cc12 [Example 219],3
10,CNC(=O)c1c(-c2ccc(F)cc2)oc2cc(N(C)S(C)(=O)=O)c(-c3cc(F)cc(-c4nc5cc(F)cnc5o4)c3)cc12 [Example 220],1.5
11,CNC(=O)c1c(-c2ccc(F)cc2)oc2cc(N(C)S(C)(=O)=O)c(-c3ccc(F)c(-c4nc5cccnc5o4)c3)cc12 [Example 221],1.7
12,CNC(=O)c1c(-c2ccc(F)cc2)oc2cc(N(C)S(C)(=O)=O)c(-c3cc(-c4nc5cccnc5o4)ccc3F)cc12 [Example 222],3.5
13,CNC(=O)c1c(-c2ccc(F)cc2)oc2cc(N(C)S(C)(=O)=O)c(-c3cccc(-c4nc5cc(Cl)cnc5o4)c3)cc12 [Example 223],10
14,CNC(=O)c1c(-c2ccc(F)cc2)oc2cc(N(C)S(C)(=O)=O)c(-c3cccc(-c4nc5cc(F)cnc5o4)c3)cc12 [Example 224],2.3
15,CNC(=O)c1c(-c2ccc(F)cc2)oc2cc(N(C)S(C)(=O)=O)c(-c3ccc(OC)c(-c4nc5cccnc5o4)c3)cc12 [Example 225],3.6
16,CNC(=O)c1c(-c2ccc(F)cc2)oc2cc(N(C)S(C)(=O)=O)c(-c3ccc(OC)c(-c4nc5cc(Cl)cnc5o4)c3)cc12 [Example 226],4
17,CNC(=O)c1c(-c2ccc(F)cc2)oc2cc(N(C)S(C)(=O)=O)c(-c3ccc(OC)c(-c4nc5cc(F)cnc5o4)c3)cc12 [Example 227],2.2
18,CNC(=O)c1c(-c2ccc(F)cc2)oc2cc(N(C)S(C)(=O)=O)c(-c3ccc(Cl)c(-c4nc5cccnc5o4)c3)cc12 [Example 228],3.2
19,CNC(=O)c1c(-c2ccc(F)cc2)oc2cc(N(C)S(C)(=O)=O)c(-c3cc(Cl)cc(-c4nc5cccnc5o4)c3)cc12 [Example 229],3.7
